Source: patent publication US8877946B2, “Benzylidene-indolinone compounds and their medical use” (National University of Singapore, priority 2011, dated 2014)
In brackets after ≈: the same amount, converted by molar mass. Like-named read-outs stand apart in the source and are kept apart here.

Legend:
CYP1A1 = assay: EROD assay, induction of CYP1A1 activity in HuH7 cells; type: cell-based, human; settings: for induction of CYP450 (CYP1A1, EROD) activity: broad range of concentrations spanning growth inhibitory concentrations, FIG. 2
Text: The induction of CYP1A1 activity was monitored by the 7-ethoxyresorufin O-deethylase (EROD) assay. EROD is a CYP1A1 enzyme and induction of its activity would result in the formation of more resorufin, a fluorescent compound. By monitoring resorufin levels in cells that are exposed to test compound and comparing the levels with those in untreated cells, it is possible to identify compounds that induce EROD activity.
Readings were taken at λexcitation of 530 nm and λemission of 590 nm on a fluorometer (Name the plate reader). Background fluorescence of the test compound was determined at the same wavelengths to take into account its contribution to the observed readings. Readings of “blank” wells that contained only media and “control” wells with only HuH7 cells in media (with 1% DMSO) were also determined. β-napthoflavone (BNF), a known inducer of CYP1A1 activity (give ref) was used as a positive control. The extent to which EROD activity was induced is given by the expression: Degree of induction=(FCells+Test Compound−FBlank)/(FControl−FBlank)
Where Fcells+test compound=fluorescence of wells containing treated cells; FBlank=fluorescence of well containing media only; FControl=fluorescence readings of wells containing untreated cells. The test compounds were not fluorescent at the excitation and emission wavelengths used in this assay. Two separate determinations were made for each concentration of test compound.

phospho-STAT3 (Tyr 705) = assay: Detection of phosphorylated STAT3 by immunoblot in HepG2; type: cell-based, human; settings: FIG. 3
Experimental: Rabbit polyclonal antibodies to STAT3 was obtained from Santa Cruz Biotechnology (Santa Cruz, Calif.), and rabbit monoclonal antibodies against phospho-STAT3 (Tyr 705) were purchased from Cell Signaling Technology (Beverly, Mass.).
For detection of phopho-STAT 3 and STAT 3, treated whole-cell extracts were lysed in lysis buffer (20 mM Tris (pH 7.4), 250 mM NaCl, 2 mM EDTA (pH 8.0), 0.1% Triton X-100, 0.01 mg/ml aprotinin, 0.005 mg/ml leupeptin, 0.4 mM PMSF, and 4 mM NaVO4). Lysates were then spun at 14,000 rpm for 10 min to remove insoluble material and resolved on a 7.5% SDS gel. After electrophoresis, the proteins were electrotransferred to a nitrocellulose membrane, blocked with 5% nonfat milk, and probed with anti-phospho-STAT 3 and anti-STAT 3 antibodies (1:1,000) overnight at 4° C. The blot was washed, exposed to HRP-conjugated secondary antibodies for 1 hr, and finally examined by chemiluminescence (ECL; GE Healthcare, Little Chalfont, Buckinghamshire, UK).

AFP mRNA = assay: Determination of AFP mRNA levels by quantitative real-time PCR in HuH7 cells; type: cell-based, human; settings: 10 μM, 24 h, FIG. 1
Text: The primer sequences were: […] reverse); [NT] (Human GADPH forward); [NT] (Human GADPH reverse).

Hep G2 = assay: MTT antiproliferative assay on Hep G2 cells; type: cell-based; settings: Homo sapiens, HepG2, 72 h
Text: (§1) MTT was purchased from DUCHEFA Biochemie ([…]). Sunitinib, and sodium dodecyl sulfate, bovine serum albuminwere obtained from Sigma Aldrich (Singapore). Sorafenib was purchase from Ontario Chem. Fetal bovine serum (FBS) was obtained from Invitrogen. Human hepatocellular carcinoma cells (HuH-7 and Hep G2), and human diploid fibroblast strain (IMR 90). HuH7 was obtained as gifts from Dr Ho Han Kiat, Department of Pharmacy, NUS. IMR90 and Hep G2 were purchased from American Type Culture Collection (ATCC). HuH-7 cells were cultured in DMEM (Dulbecco's Modified Eagle Medium, high glucose) with 10% v/v fetal bovine serum (FBS), 100 mg/L penicillin G and 100 mg/L streptomycin. IMR 90 cell were cultured in EMEM (Eagle's Minimum Essential Medium), with 10% v/v FBS and 100 mg/L penicillin G and 100 mg/L streptomycin. The cells were sub-cultured when HuH7 or Hep G2 reached a density of 70-80×10^5 cell/T75 flask, and IMR 90 reached 20×10^5 cell/T75 flask. Cells were used within 2-10 passages for viability experiments.
(§2) The anti-proliferative activity of the test compounds were determined by the MTT assay. An aliquot (200 μL, 3×10^4 cells/mL for HuH7, 3.75×10^4 cells/mL for Hep G2, and 2×10^4 cells/mL for IMR 90) of medium was added to each well of the microtitre plate. […] The existing medium was removed from each well and replaced by fresh medium (200 μL) containing a known concentration of test compound. The final concentration of DMSO in each well was maintained at 0.5% v/v. (1% v/v was also utilized if the compounds were not soluble) The test compounds were incubated with the cells for another 72 h at 37 deg C., 5% CO2. The medium was then removed from the well and replaced with FBS free medium (200 μL) and MTT (50 μL of 2 mg/mL solution in phosphate buffer saline, pH 7.4). The phosphate buffer saline comprises 10 mM of potassium phosphate and 137 mM sodium chloride. After incubation (3 h) at 37 deg C., 5% CO2, the supernatant was removed and a solution of 200 μL DMSO and 25 μL Sorenson buffer (0.1 M glycine, 0.1 M sodium chloride, adjusted to pH 10.5 with 0.1 M sodium hydroxide) was added to dissolve the formazan crystals in each well. Vehicle control were cells grown in 1% v/v DMSO/Medium for 72 h, 37 deg C., 5% CO2 while blank controls were wells that contained only 200 μL DMSO and 25 μL Sorenson buffer. Absorbances were measured at 570 nm on a microplate reader (Tecan, Infinite 200). The viability of cells at a given concentration of test compound was determined from the expression:
(§3) [formula] where abs_compound=absorbance of wells containing cells and test compound, abs_vehicle (Not the same as above. Change to abs_vehicle)=absorbance of vehicle control and abs_blank=absorbance of blank control.
(§4) Each concentration of test compound was evaluated at least 3 times on separate occasions, and two different stock solution were used. The IC50 value (concentration that inhibited 50% of cell growth) was determined from the sigmoidal curve obtained by plotting percentage viability versus logarithmic concentration of test compound using GraphPad Prism 5 (San Diego, USA).

HuH7 cells = assay: MTT antiproliferative (growth inhibition) assay on HuH7 cells; type: cell-based, human; settings: Homo sapiens, Huh-7, MTT
In short: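 Cells were exposed to compound for 72 h at 37° C, 5% CO2, with 0.5% v/v DMSO (1% if poorly soluble), then given MTT for 3 h. Formazan was dissolved in DMSO/Sorenson buffer and absorbance read at 570 nm; IC50 from sigmoidal fits of % viability versus log concentration.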

IMR 90 = assay: MTT antiproliferative assay on non-malignant IMR 90 fibroblasts; type: cell-based; settings: non-malignant human lung fibroblast IMR 90, MTT, 72 h
Text: as §1, §2, §3, §4

[1] = Aqueous solubility on Multiscreen Solubility filter plates; type: physicochemical; settings: aqueous solution on Multiscreen Solubility filter plates, aqueous buffer, kinetic from dmso stock, mean of 3 determinations
Experimental: (§5) Solubility and PAMPA permeability (Pe) are important physicochemical indicators of drug-like character. Determination of aqueous solubility was carried out on Multiscreen® Solubility filter plates (Millipore-MSSLBPC10) from Millipore Corporation (MA, USA). The protocol (PC2445EN00, Millipore Corporation) was followed. Pe determinations were carried out on MultiScreen-IP PAMPA assay (donor) plates (MAIPNTR10) and MultiScreen Receiver Plates (MATRNPS50) from Millipore Corporation (USA) with 1% lecithin (L-α-phosphatidylcholine from lyophilized powder of egg yolk, Sigma Aldrich, USA) in dodecane (ReagentPlus®, Sigma Aldrich, USA) as lipid barrier.

PAMPA permeability (Pe) = type: physicochemical; settings: 1% lecithin in dodecane, mean of 3 determinations
Experimental: as §5

[2] = 72 h (Table 9), read-out: IC50 (μM) HuH7
[3] = 72 h incubation, mean and SD of 3 or more independent determinations (Tables 1-8), read-out: IC 50

| Structure (SMILES) | induction of EROD activity at 0.05 μM (CYP1A1; 0.05 μM, declined at higher concentrations) | induction of CYP450 (CYP1A1, EROD) activity (CYP1A1) | effect on p-STAT3 levels (constitutive STAT3 activation) (phospho-STAT3 (Tyr 705)) | effect on AFP mRNA levels (AFP mRNA) | IC50 (Hep G2) [µM] | IC50 (HuH7 cells; [2]) [µM] | IC50 (HuH7 cells; [3]) [µM] | IC50 (IMR 90) [µM] | solubility at 3 h ([1]; pH 7.4, agitation time 3 h) [µM] | solubility at 24 h ([1]; pH 7.4, agitation time 24 h) [µM] | Pe (×10^−6 cm/s) (PAMPA permeability (Pe); pH 7.4, 6 h) | Pe (×10^−6 cm/s) (PAMPA permeability (Pe); pH 7.4, 16 h) |
| --- | --- | --- | --- | --- | --- | --- | --- | --- | --- | --- | --- | --- |
| CN1C(=O)/C(=C/c2cccc(C(F)(F)F)c2)c2ccc(Cl)cc21 [Compound 1-10, (E) 6-Chloro-1-methyl-3-(3-trifluoromethyl-benzylidene)-1,3-dihydro-indol-2-one, reference compound] | unusual (but reproducible) induction | did not induce CYP450 activity | did not | reduced AFP mRNA by almost half | 0.94 ± 0.18 | 0.46 ± 0.06 | 0.46 ± 0.06 | 9.23 ± 0.88 | – | – | – | – |
| CNS(=O)(=O)c1cccc(/C=C2/C(=O)Nc3cc(Cl)ccc32)c1 [Compound 1-18, (E)-3-(6-Chloro-2-oxo-1,2-dihydro-indol-3-ylidenemethyl)-N-methyl-benzenesulfonamide] | – | did not induce CYP450 activity | reduced p-STAT3 levels | no significant change in AFP mRNA levels | 3.99 ± 0.43 | 0.54 ± 0.06 | 0.54 ± 0.06 | 2.1 | 8.85 (≈ 3.09 µg/mL) | 2.28 (≈ 0.795 µg/mL) | 18.3 ×10^−6 cm/s | 12.3 ×10^−6 cm/s |
| O=C1Nc2ccc(F)c(F)c2/C1=C/c1cccc(C(F)(F)F)c1 [Compound 6-6, (Z)-4,5-Difluoro-3-(3-trifluoromethyl-benzylidene)-1,3-dihydro-indol-2-one] | – | did not induce CYP450 activity | did not | reduced levels to almost the same extent as 1-10 | 0.96 ± 0.11 | 0.54 ± 0.07 | 0.54 ± 0.07 | 8.1 ± 0.73 | – | – | – | – |
